Source: patent US20240316088A1, “Solid composition suitable as a nutritional composition or supplement for animals that suffer from brain related disorders, decline or diseases” (N.V. Nutricia, priority 2022, published 2024)

Test: Hygroscopicity as observed during formulation and processing
Format: physicochemical

Question: With `C[N+](C)(C)CCO.O=C([O-])C(O)C(O)C(=O)O` (centres unmarked) [Choline bitartrate] as the molecule, how does the “hygroscopicity (in words)” value read?
Answer: Its value is “much reduced hygroscopicity”.

Question: For `C[N+](C)(C)CCO.[Cl-]` [Choline chloride], which “hygroscopicity (in words)” value is on record?
Answer: The value was “very hygroscopic”.
